Molecules are shown by their SMILES. Active and inactive are the calls of the source. No cut-off for these calls is given here.

Results on one compound are retold here after ChEMBL document CHEMBL4813945, “Discovery and development of novel pyrimidine and pyrazolo/thieno-fused pyrimidine derivatives as potent and orally active inducible nitric oxide synthase dimerization inhibitor with efficacy for arthritis” (Eur J Med Chem, 2021).

Data set [1] has as its target T1, Nitric oxide synthase, inducible (Mus musculus) (UniProt P29477).
T1 sequence (whole entry): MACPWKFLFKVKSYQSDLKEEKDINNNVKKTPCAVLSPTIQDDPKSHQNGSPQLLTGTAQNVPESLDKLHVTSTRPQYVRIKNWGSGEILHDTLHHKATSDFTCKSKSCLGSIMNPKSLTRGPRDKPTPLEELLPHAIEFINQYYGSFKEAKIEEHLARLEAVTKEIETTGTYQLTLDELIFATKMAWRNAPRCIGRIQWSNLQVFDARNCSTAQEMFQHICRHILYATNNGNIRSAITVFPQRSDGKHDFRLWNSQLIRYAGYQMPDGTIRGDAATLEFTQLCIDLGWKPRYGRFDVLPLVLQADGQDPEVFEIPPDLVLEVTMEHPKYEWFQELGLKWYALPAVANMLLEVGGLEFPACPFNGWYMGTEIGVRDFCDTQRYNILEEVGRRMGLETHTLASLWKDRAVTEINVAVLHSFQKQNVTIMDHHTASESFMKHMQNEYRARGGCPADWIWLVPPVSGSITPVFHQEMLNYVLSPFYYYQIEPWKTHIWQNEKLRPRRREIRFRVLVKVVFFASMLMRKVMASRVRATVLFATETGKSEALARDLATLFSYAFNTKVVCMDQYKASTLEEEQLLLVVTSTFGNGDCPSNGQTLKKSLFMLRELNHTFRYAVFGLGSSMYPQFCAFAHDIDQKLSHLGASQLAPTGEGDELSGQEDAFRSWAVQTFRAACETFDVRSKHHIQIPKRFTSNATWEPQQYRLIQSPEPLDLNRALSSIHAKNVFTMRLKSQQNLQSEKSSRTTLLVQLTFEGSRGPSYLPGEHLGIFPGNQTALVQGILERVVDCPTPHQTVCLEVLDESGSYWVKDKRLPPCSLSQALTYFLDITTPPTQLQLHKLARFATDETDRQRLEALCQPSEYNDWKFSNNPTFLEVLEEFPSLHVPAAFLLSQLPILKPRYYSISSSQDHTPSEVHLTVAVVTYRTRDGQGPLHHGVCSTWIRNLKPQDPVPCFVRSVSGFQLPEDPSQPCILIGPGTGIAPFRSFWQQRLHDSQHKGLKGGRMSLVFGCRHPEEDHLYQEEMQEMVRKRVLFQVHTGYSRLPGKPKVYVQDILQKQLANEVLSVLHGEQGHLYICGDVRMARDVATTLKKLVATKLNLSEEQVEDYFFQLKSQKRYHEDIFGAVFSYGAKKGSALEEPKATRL
Briefly: Inhibition of iNOS dimer formation in LPS-induced mouse RAW264.7 cells at 0.5 to 2 uM preincubated for 1 hrs followed by LPS-stimulation and measured after 24 hrs by Westernblot analysis. The following applies: dose 0.5-2 µM, time 25.0 hrs.

Data set [2] has as its system RAW264.7. Kind of data set: Inhibition of LPS-induced iNOS protein expression in mouse RAW264.7 cells at 0.5 to 2 uM preincubated for 1 hrs followed by LPS-stimulation and measured after 24 hrs by Western blot analysis. Format: functional, cell-based. The following applies: dose 0.5-2 µM, time 25.0 hrs. Background: A western blot detects proteins with antibodies after separation by electrophoresis.

Data set [3] is described as follows: Plasma clearance in Sprague-Dawley rat at 1 mg/kg, iv measured after 0.08 to 24 hrs hrs by LC/MS/MS analysis. The class given is ADME, organism-based. Particulars: time 0.08-24 hrs.
Data set [4] is described as follows: Metabolic stability in rat hepatocytes assessed as intrinsic clearance incubated up to 120 mins measured per million cells by LC-MS/MS analysis. Format: ADME, cell-based, Hepatocyte. The following applies: read-out: CLH.
The target of a further data set is T2, Cytochrome P450 1A2 (Homo sapiens, UniProt P05177).
T2 sequence (P05177 whole entry): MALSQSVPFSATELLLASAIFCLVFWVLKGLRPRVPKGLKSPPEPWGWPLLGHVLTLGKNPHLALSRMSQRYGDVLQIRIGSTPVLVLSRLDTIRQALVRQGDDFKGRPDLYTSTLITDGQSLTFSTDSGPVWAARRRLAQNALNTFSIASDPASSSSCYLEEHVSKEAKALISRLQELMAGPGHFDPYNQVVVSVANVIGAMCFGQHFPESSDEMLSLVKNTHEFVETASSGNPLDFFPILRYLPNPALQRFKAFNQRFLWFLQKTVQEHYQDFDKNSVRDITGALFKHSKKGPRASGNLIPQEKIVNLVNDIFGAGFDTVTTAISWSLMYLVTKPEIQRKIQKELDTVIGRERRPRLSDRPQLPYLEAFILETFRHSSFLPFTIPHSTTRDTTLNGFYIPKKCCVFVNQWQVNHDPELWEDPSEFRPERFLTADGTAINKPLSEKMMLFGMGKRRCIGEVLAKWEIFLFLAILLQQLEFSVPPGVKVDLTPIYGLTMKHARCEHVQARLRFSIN
Kind of data set: Inhibition of CYP1A2 in human liver microsomes using Phenacetin as substrate measured after 20 mins by LC-MS/MS analysis. Format: ADME.

The test system of data set [5] is RAW264.7. Kind of data set: Cytotoxicity against LPS-induced mouse RAW 264.7 cells assessed as cell viability measured by MTT assay. Format: cell-based. For orientation: Tetrazolium dyes change colour on reduction, which living cells bring about.
In the next data set the target is CYP3A4/5 (Homo sapiens, UniProt P08684+P20815). Briefly: Inhibition of CYP3A4/5 in human liver microsomes using Midazolam as substrate measured after 20 mins by LC-MS/MS analysis. The following applies: probe Midazolam. Format: ADME. For orientation: Liver microsomes are a subcellular fraction often used to study metabolism.
The nature of data set [6]: Metabolic stability in human hepatocytes assessed as clearance incubated up to 120 mins measured per million cells by LC-MS/MS analysis. Format: ADME, cell-based, Hepatocyte. Particulars: read-out: CLH.
A short description of data set [7]: AUC (0 to infinity) in Sprague-Dawley rat at 10 mg/kg, po measured by LC-MS analysis. The class given is ADME, organism-based. The following applies: in vivo. Also noted: time infinity, route oral, dose 10 mg/kg.
Data set [8] is described as follows: Subacute toxicity in rat assessed as change in body weight at 100 to 500 mg/kg, IG administered every other day for 14 days and measured every 2 days. Format: organism-based. Particulars: in vivo, po, 336 h, dose 100-500 mg/kg, time 14 day.
The nature of data set [9]: Acute toxicity in rat assessed as liver necrosis at 200 to 500 mg/kg measured after 7 days by H and E staining based assay. Format: organism-based. Particulars: in vivo, 168 h, dose 200-500 mg/kg, time 7 day.
Another data set concerns L02. Briefly: Antiinflammatory activity against human L02 assessed as inhibition of LPS-induced NO production preincubated for 1 hrs followed by LPS stimulation and measured after 24 hrs by Griess assay relative to control. Format: functional, cell-based.
Data set [10] in a line: Half life in Sprague-Dawley rat at 10 mg/kg, po measured after 0.25 to 24 hrs by LC-MS/MS analysis. The class given is ADME, organism-based. The following applies: in vivo, time 0.25-24 hrs.
Data set [11] concerns RAW264.7. Briefly: Cytotoxicity against mouse RAW264.7 cells at 20 uM measured after 24 hrs. Format: cell-based. The following applies: raw264.7, 24 h.
A short description of data set [12]: Tmax in Sprague-Dawley rat at 10 mg/kg, po measured after 0.25 to 24 hrs by LC-MS/MS analysis. Particulars: in vivo, time 0.25-24 hrs. Format: ADME, organism-based.
Data set [13] relates to Rattus norvegicus. Kind of data set: Antiinflammatory activity in complete freund's adjuvant-induced male Sprague-Dawley rat model of arthritis assessed as reduction in ankle joint swelling at 40 to 80 mg/kg, IG administered once daily for 2 to 4 weeks. The class given is functional, organism-based. Particulars: dose 40-80 mg/kg, time 2-4 weeks.
In data set [14] the test system is Rattus norvegicus. Briefly: Antiinflammatory activity in complete freund's adjuvant-induced male Sprague-Dawley rat model of arthritis assessed as improved cartilage destruction at 80 mg/kg, IG after 4 weeks by H and E staining based histopathological analysis. Format: functional, organism-based.
The nature of data set [15]: Metabolic stability in human hepatocytes assessed as parent compound remaining after 120 mins by LC-MS/MS analysis. The following applies: read-out: Stabilty. Format: ADME, cell-based, Hepatocyte.

The clearance is a measure of how efficiently the substance is removed, as volume per time. Read a low clearance as a low capacity for elimination. By IC50 is commonly meant the concentration that gives 50% inhibition. What is called AUC is the area under the concentration-time curve, a measure of exposure. Lower therefore signals low exposure. In general, half-life refers to the time in which the quantity being followed falls by half. Broadly, the Tmax is the time from dosing to the highest level. As for `COc1cc(/C=C/c2nc(NCc3ccc(C)cc3)c3sccc3n2)cc(OC)c1OC`, the inhibition entry in [1] is “Active”. Also, the inhibition entry in the data set with RAW264.7 [2] is “inactive”. Moreover, the clearance in data set [3] worked out at 42.9 mL/min/kg. Also, the results for the hepatocyte CLint in data set [4] and in data set [6] were 12.6 µL/min/1e6 cells and 2.1 µL/min/1e6 cells, respectively. Also, the IC50 is 42.2 µM against Cytochrome P450 1A2, over 50 µM in the data set with RAW264.7 [5] and over 1000 µM with L02. The IC50 at 20 min on CYP3A4/5 was over 50 µM. In data set [7], this compound displayed an AUC of 1152 ng·h/mL. Also, the Activity result in data set [8] is reported as “Toxic”; in data set [9], “Toxic”; in the data set on RAW264.7 [11], “Non-Toxic”. In addition, in data set [10], the half-life is 4.91 h. For the same compound, the Tmax in data set [12] stood at 3.33 h. In addition, the result in the data set with Rattus norvegicus [13] and in the data set on Rattus norvegicus [14] was Active. Besides, the remaining at 2 h in [15] came to 77.5%.
